{"source": "patent US12544413B2", "about": "“Composition with antibacterial and re-epithelializing action including probiotics” (EOS2021 S.R.L, priority 2019, dated 2026)", "key": {"HaCaT keratinocytes": {"system": "HaCaT keratinocytes", "experiment": "Trypan blue dye exclusion test of HaCaT viability", "format": "cell-based, human", "settings": "0.1%; positive control; P≤0.01", "procedure": "The HaCaT cell line of spontaneously immortalized human keratinocytes was purchased from Cell Lines Service GmbH (Eppelheim, Germany). HaCaT cells were cultured in DMEM supplemented with 10% (v/v) fetal calf serum (FCS), 2 mM L-glutamine, 100 U/ml penicillin and 100 μg/ml streptomycin (Euro Clone, West York, UK). The culture conditions were kept constantly at 37° C. in a humidified atmosphere with 5% CO2. After reaching 80% confluency, cells were seeded, as specified below, in 6- or 12-well plates for sterile cell cultures (Becton Dickinson, San José, CA) at the concentration of 18,000 cells/cm^2. Non-adherent cells were removed by gentle washing in phosphate buffer (PBS, pH=7.4). Cells grown in a 12-well plate were collected at 20, 28 and 45 hours and live cells were counted with the trypan blue dye exclusion test (Euro Clone, West York, UK). […] Untreated cells were also analysed and used as negative controls. The cells were transferred to a Bürker counting chamber and counted under a microscope Eclipse 50i (Nikon Corporation, Japan). For the selection of suitable concentrations of bacterial extract expressed as μg protein/ml, the viability of the HaCaT keratinocytes was analyzed using the trypan blue exclusion test. […]"}, "[1]": {"experiment": "Clinical course of diabetes ulcers and toe amputation wound in a patient (Example 1)", "format": "in vivo, human", "settings": "500 mg orally every 12 hours, four weeks", "from_the_text": "The probiotic formulation was a composition comprising Lactobacillus plantarum NCIMB 43029, Lactobacillus acidophilus NCIMB 43030 and the known Streptococcus thermophilus (SEQ ID NO: 10). 0.5 g of composition was applied once daily.\nThe use of the probiotic formulation was discontinued on day 60, 24 days after treatment."}, "iNOS": {"system": "iNOS", "experiment": "Nitrite levels assay (Griess) in culture medium of scratched HaCaT monolayers", "format": "cell-based, human", "settings": "AG 20 μM, 15 min pre-treatment, no bacterial extract, 28 hours", "procedure": "The scratched monolayers of HaCaT cells were incubated with or without AG at the concentration of 20 μM for 15 minutes before treatment with the bacterial extracts. Nitrite levels in the culture medium were analyzed by Griess reagent after 28 hours. Data shown are expressed as the mean±SEM of three independent experiments conducted in duplicate. The two-way analysis of variance followed by the Bonferroni's post-hoc test was used to assess the presence of statistically significant differences between the data groups: *P<0.05, **P<0.01, ****P<0.0001 with respect to the control (untreated). #P<0.05, ##P<0.01, ###P<0.001, ####P<0.0001 with respect to each corresponding culture without AG. The ability of bacterial extracts to regulate iNOS was further analyzed by measuring the nitrite levels in supernatants of scratched monolayers of HaCaT cells pre-treated with AG, a selective iNOS inhibitor, or not treated with such inhibitor (known from T. P. Misko et al., Eur. J. Pharmacol, 1993, 233:119-125). NO production was indirectly evaluated with the use of the Griess method by measuring nitrite levels using nitrate reductase and the Griess reaction based on a colorimetric assay. […] Absorbance was measured by spectrophotometric reading at 550 nm using a microplate reader (Bio-Rad Hercules, California, USA). […]"}, "[2]": {"system": "scratched monolayers of HaCaT cells (human keratinocyte cell line)", "experiment": "In vitro wound healing model (scratched HaCaT monolayer)", "format": "cell-based", "settings": "AG 20 μM, 15 min pre-treatment, no bacterial extract, 20 hours", "procedure": "The inventor has evaluated the ability of extracts obtained from selected bacterial strains to influence wound re-epithelialization using an in vitro artificial wound model. The rate of closure of the scratched monolayer in untreated cells and in cells treated with each bacterial extract at the concentration of 50 μg/ml is shown and evaluated through the observation of the repopulation of the area between the wound edges at different time points after the wound generation. In order to quantitatively analyze the effects of the bacterial extracts on the closure of the wound area, images obtained by using an inverted phase contrast microscope at 0, 20, 28 and 45 hours after the scratch were acquired and expressed as a percentage of closure by using an automatical calculation system to evaluate the percentage of area occupied by said cells with respect to the total surface area analyzed. […] The results expressed as percentages of relative re-epithelialization (mean±SEM from three independent experiments conducted in duplicate) as well as the images representing microscopic observations of scratched monolayers are shown in FIGS. 1A and 1B respectively.\nThe HaCaT cell line of spontaneously immortalized human keratinocytes was purchased from Cell Lines Service GmbH (Eppelheim, Germany). […] Untreated cells were also analysed and used as negative controls. […]"}}, "data": [{"molecule": "Triton X", "values": [{"measurement": "cell viability", "setting": "HaCaT keratinocytes", "result": "significant reduction"}]}, {"molecule": "CC1(C)S[C@@H]2[C@H](NC(=O)[C@H](N)c3ccc(O)cc3)C(=O)N2[C@H]1C(=O)O", "note": "[amoxicillin]", "values": [{"measurement": "clinical picture of the wounds (wound exudate)", "setting": "[1]", "result": "worsening clinical picture"}]}, {"molecule": "N=C(N)NN", "note": "[AG, aminoguanidine]", "values": [{"measurement": "nitrite production induced by scratching the control monolayer", "setting": "iNOS", "result": "significantly prevented the increase in nitrite production"}, {"measurement": "re-epithelialization (repairing) of the control monolayer", "setting": "[2]", "result": "strong effect on the physiological repairing of the control monolayer"}]}]}
